Assay results reported in patent US6518290B1, “Substituted oxazoles and thiazoles derivatives as HPPAr alpha activators” (priority 1999, dated 2003).

Experiments:
human PPAR alpha = biological target: T1, human PPAR alpha (Homo sapiens, UniProt Q07869); test: PPAR transient transfection (transactivation) assay in CV-1 cells, hPPAR alpha; assay type: cell-based; conditions: PPAR LBD-GAL4 chimera, SPAP reporter, 24 h with compound, read-out: human αEC50
T1 construct: expressed in transfected cells; host or cells: CV-1 cells
T1 sequence (Q07869 239-466 limits assumed): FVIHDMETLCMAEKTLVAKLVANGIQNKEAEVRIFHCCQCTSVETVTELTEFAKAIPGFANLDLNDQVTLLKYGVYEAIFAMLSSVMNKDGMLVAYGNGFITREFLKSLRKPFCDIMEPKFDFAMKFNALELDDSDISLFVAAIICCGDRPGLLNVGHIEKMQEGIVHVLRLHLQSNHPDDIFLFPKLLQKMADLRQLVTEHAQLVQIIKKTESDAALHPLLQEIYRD
Text: Compounds were screened for functional potency in transient transfection assays in CV-1 cells for their ability to activate the PPAR subtypes (transactivation assay). A previously established chimeric receptor system was utilized to allow comparison of the relative transcriptional activity of the receptor subtypes on the same target gene and to prevent endogenous receptor activation from complicating the interpretation of results. See, for example, Lehmann, J. M.; Moore, L. B.; Smith-Oliver, T. A.; Wilkison, W. O.; Willson, T. M.; Kliewer, S. A., An antidiabetic thiazolidinedione is a high affinity ligand for peroxisome proliferator-activated receptor γ (PPARγ), J. Biol. Chem., 1995, 270, 12953-6. The ligand binding domains for murine and human PPAR alpha, PPAR gamma, and PPAR delta were each fused to the yeast transcription factor GAL4 DNA binding domain. CV-1 cells were transiently transfected with expression vectors for the respective PPAR chimera along with a reporter construct containing five copies of the GAL4 DNA binding site driving expression of secreted placental alkaline phosphatase (SPAP) and β-galactosidase. After 16 h, the medium was exchanged to DME medium supplemented with 10% delipidated fetal calf serum and the test compound at the appropriate concentration. After an additional 24 h, cell extracts were prepared and assayed for alkaline phosphatase and β-galactosidase activity. […] Rosiglitazone (BRL 49653) was used as a positive control in the hPPAR gamma assay. The positive control in the hPPAR alpha assays was 2-(2-methyl-3-[3-{3-(4-cyclohexylamino)-[6-(4-fluorophenylpiperazin-1-yl)][1,3,5]triazin-2-ylamino}propyl]phenylthio)-2-methylpropionic acid. The positive control for PPAR delta assays was 2-{2-methyl-4-[({4-methyl-2-{trifluoromethyl)phenyl]-1,3-thiazol-5-yl}methyl)sulfanyl]phenoxy}acetic acid.

human PPAR delta = biological target: T2, human PPAR delta (Homo sapiens, UniProt Q03181); test: PPAR transient transfection (transactivation) assay in CV-1 cells, PPAR delta; assay type: cell-based; conditions: PPAR LBD-GAL4 chimera, SPAP reporter, 24 h with compound, read-out: human δEC50
T2 construct: expressed in transfected cells; host or cells: CV-1 cells
T2 sequence (Q03181 211-439 limits assumed): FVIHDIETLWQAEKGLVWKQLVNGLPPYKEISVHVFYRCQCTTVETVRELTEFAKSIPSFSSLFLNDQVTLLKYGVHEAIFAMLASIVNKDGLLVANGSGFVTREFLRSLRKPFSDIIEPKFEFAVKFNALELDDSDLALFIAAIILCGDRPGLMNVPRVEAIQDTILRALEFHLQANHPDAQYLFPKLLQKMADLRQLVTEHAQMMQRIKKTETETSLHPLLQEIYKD
Text: (§1) Compounds were screened for functional potency in transient transfection assays in CV-1 cells for their ability to activate the PPAR subtypes (transactivation assay). A previously established chimeric receptor system was utilized to allow comparison of the relative transcriptional activity of the receptor subtypes on the same target gene and to prevent endogenous receptor activation from complicating the interpretation of results. See, for example, Lehmann, J. M.; Moore, L. B.; Smith-Oliver, T. A.; Wilkison, W. O.; Willson, T. M.; Kliewer, S. A., An antidiabetic thiazolidinedione is a high affinity ligand for peroxisome proliferator-activated receptor γ (PPARγ), J. Biol. Chem., 1995, 270, 12953-6. The ligand binding domains for murine and human PPAR alpha, PPAR gamma, and PPAR delta were each fused to the yeast transcription factor GAL4 DNA binding domain. CV-1 cells were transiently transfected with expression vectors for the respective PPAR chimera along with a reporter construct containing five copies of the GAL4 DNA binding site driving expression of secreted placental alkaline phosphatase (SPAP) and β-galactosidase. After 16 h, the medium was exchanged to DME medium supplemented with 10% delipidated fetal calf serum and the test compound at the appropriate concentration. After an additional 24 h, cell extracts were prepared and assayed for alkaline phosphatase and β-galactosidase activity. Alkaline phosphatase activity was corrected for transfection efficiency using the β-galactosidase activity as an internal standard (see, for example, Kliewer, S. A., et. al. Cell 83, 813-819 (1995)). Rosiglitazone (BRL 49653) was used as a positive control in the hPPAR gamma assay. The positive control in the hPPAR alpha assays was 2-(2-methyl-3-[3-{3-(4-cyclohexylamino)-[6-(4-fluorophenylpiperazin-1-yl)][1,3,5]triazin-2-ylamino}propyl]phenylthio)-2-methylpropionic acid. The positive control for PPAR delta assays was 2-{2-methyl-4-[({4-methyl-2-{trifluoromethyl)phenyl]-1,3-thiazol-5-yl}methyl)sulfanyl]phenoxy}acetic acid.

human PPAR gamma = biological target: T3, human PPAR gamma (Homo sapiens, UniProt P37231); test: PPAR transient transfection (transactivation) assay in CV-1 cells, hPPAR gamma; assay type: cell-based; conditions: PPAR LBD-GAL4 chimera, SPAP reporter, 24 h with compound, read-out: human γEC50
T3 construct: expressed in transfected cells; host or cells: CV-1 cells
T3 sequence (P37231 238-503 limits assumed): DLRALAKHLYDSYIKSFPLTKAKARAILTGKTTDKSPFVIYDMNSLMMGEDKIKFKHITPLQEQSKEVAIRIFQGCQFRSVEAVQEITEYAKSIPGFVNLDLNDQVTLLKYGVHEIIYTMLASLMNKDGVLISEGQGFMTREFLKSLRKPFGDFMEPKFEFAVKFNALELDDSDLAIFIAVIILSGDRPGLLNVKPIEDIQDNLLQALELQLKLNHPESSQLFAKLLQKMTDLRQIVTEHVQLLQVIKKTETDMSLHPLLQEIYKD
Text: as §1

EC50 (human PPAR alpha) | EC50 (human PPAR delta) | EC50 (human PPAR gamma) | melting point | Structure (SMILES)
0.044 µM | ≥ 10 µM | ≥ 10 µM | 159 °C | Cc1nc(-c2ccc(F)cc2)sc1C(=O)NCc1ccc(OC(C)(C)C(=O)O)cc1 [Example 31, 2-Methyl-2-[4-{[(4-methyl-2-[4-fluorophenyl]-thiazol-5-ylcarbonyl)amino]methyl}phenoxy]propionic Acid]
0.002 µM | 4.08 µM | 8.82 µM | – | CCc1ccc(-c2nc(C)c(C(=O)NCc3ccc(OC(C)(C)C(=O)O)cc3)s2)cc1 [Example 27, 2-Methyl-2-[4-{[(4-methyl-2-[4-ethylphenyl]-thiazol-5-ylcarbonyl)amino]methyl}phenoxy]propionic Acid]
